Tests used:
[1] = Drug level in PDAPP V717F transgenic mouse plasma assessed as unbound fraction at 100 mg/kg, sc; format: ADME, organism-based; details: in vivo
[2] = Metabolic stability in mouse liver microsomes assessed as metabolized drug level after 30 mins in presence of NADPH by LC-MS/MS analysis; format: ADME, Microsome; details: read-out: Drug metabolism
[3] = Metabolic stability in dog liver microsomes assessed as metabolized drug level after 30 mins in presence of NADPH by LC-MS/MS analysis; format: ADME, Canis lupus familiaris, Microsome; details: read-out: Drug metabolism
[4] = Drug level in PDAPP V717F transgenic mouse brain at 100 mg/kg, sc; format: ADME, organism-based; details: in vivo, read-out: Ct
[5] = Drug level in PDAPP V717F transgenic mouse plasma assessed as unbound fraction at 30 mg/kg, sc; format: ADME, organism-based; details: in vivo
[6] = Drug level in PDAPP V717F transgenic mouse brain at 30 mg/kg, sc; format: ADME, organism-based; details: in vivo, read-out: Ct
[7] = Drug level in PDAPP V717F transgenic mouse plasma at 10 mg/kg, sc; format: ADME, organism-based; details: in vivo
[8] = Metabolic stability in rat liver microsomes assessed as metabolized drug level after 30 mins in presence of NADPH by LC-MS/MS analysis; format: ADME, Microsome; details: read-out: Drug metabolism
[9] = Drug level in PDAPP V717F transgenic mouse plasma at 30 mg/kg, sc; format: ADME, organism-based; details: in vivo
[10] = Drug level in PDAPP V717F transgenic mouse plasma assessed as unbound fraction at 10 mg/kg, sc; format: ADME, organism-based; details: in vivo
[11] = Drug level in PDAPP V717F transgenic mouse plasma at 100 mg/kg, sc; format: ADME, organism-based; details: in vivo
[12] = Ratio of unbound fraction in PDAPP V717F transgenic mouse brain to plasma at 100 mg/kg, sc; format: ADME, organism-based; details: read-out: K(p,uu,brain)
[13] = Metabolic stability in human pooled liver microsomes assessed as metabolized drug level after 30 mins in presence of NADPH by LC-MS/MS analysis; format: ADME, Microsome; details: read-out: Drug metabolism
[14] = Ratio of unbound fraction in PDAPP V717F transgenic mouse brain to plasma at 10 mg/kg, sc; format: ADME, organism-based; details: read-out: K(p,uu,brain)
[15] = Ratio of unbound fraction in PDAPP V717F transgenic mouse brain to plasma at 30 mg/kg, sc; format: ADME, organism-based; details: read-out: K(p,uu,brain)
[16] = Drug level in PDAPP V717F transgenic mouse brain at 10 mg/kg, sc; format: ADME, organism-based; details: in vivo, read-out: Ct
[17] = Permeability in MDCK-MDR1 cells at 5 uM after 1 hr by LC-MS/MS analysis; format: ADME, cell-based, Canis lupus familiaris; details: dog, read-out: permeability

Row | Compound | Cp(f) [1] | metabolised at 0.5 h [2] | metabolised at 0.5 h [3] | concentration [4] | Cp(f) [5] | concentration [6] | concentration [7] | metabolised at 0.5 h [8] | concentration [9] | Cp(f) [10] | concentration [11] | Kp uu [12] | metabolised at 0.5 h [13] | Kp uu [14] | Kp uu [15] | concentration [16] | Papp at 1 h, 5 µM [17]
1 | C[C@@H]1C[C@H]1COC(C)(C)[C@@H]1C[C@H]1[C@]12CN(c3ncccn3)C[C@H]1CSC(N)=N2 | 102 nM | 98% | 79% | 389 nM | 41 nM | 176 nM | 133 nM | 98% | 326 nM | 17 nM | 815 nM | 0.16 | 31% | 0.18 | 0.17 | 63 nM | 36 ×10⁻⁶ cm/s
2 | C[C@@H]1C[C@H]1CNC(=O)[C@@H]1C[C@H]1[C@]12CN(c3ncccn3)C[C@H]1CSC(N)=N2 | – | 33% | 28% | – | – | – | – | 55% | – | – | – | – | 13% | – | – | – | 8 ×10⁻⁶ cm/s
